Experimental findings from patent US10787481B2, “Sugar-dipeptide conjugates as flavor molecules” (NESTEC S.A., priority 2015, dated 2020) are described below.

Experiment [1] relates to sensory panel. Nature of the experiment: Taste threshold concentration in model broth (sensory panel, triangle test). The experiment is classed as in vivo, human. The settings on record: versus β-alanyl-L-glycine. On the procedure: The sensory tests were performed in a sensory panel room at 20-25° C. To avoid a retro-nasal aroma or taste impression, nose clips were used. The sensory panel consisted of 8 to 14 trained persons. The panel was trained to evaluate the taste of aqueous solutions (1 mL each) of the following standard taste compounds by using a triangle test: saccharose (50 mmol/L) and L-alanine (15 mmol/L), respectively, for sweet taste; lactic acid (20 mmol/L) for sour taste; NaCl (12 mmol/L) for salty taste; caffeine (1 mmol/L) and quinine hydrochloride (0.05 mmol/L), respectively, for bitter taste; sodium glutamate (8 mmol/L, pH 5.7) for umami taste; and tannin (0.05%) for astringency. The “white meaty” oral sensations was assessed in a model broth solution prepared from monosodium glutamate monohydrate (1.9 g/L), yeast extract (2.1 g/L), maltodextrin (6.375 g/L) and sodium chloride (2.9 g/L) in bottled water (pH 5.9).

For experiment [2], the system named is sensory panel. The settings on record: chicken soup with 1 g monosodium glutamate in 500 mL; compound at 2 g/L; 12 panelists. On the procedure:
Chicken soups were prepared by dissolving 6 g chicken base powder (detailed recipe shown in Table 1) and 1 g monosodium glutamate in 500 mL hot water.
The sensory evaluation was carried out by 12 panelists, previously screened for their sensory abilities.

Experiment [3] deals with sensory panel. As to conditions: tomato soup; compound at 2 g/L.

SMILES strings stand for the structures. Where two headings read alike, the source gives them in different places.

For the compound `O=C(O)CNC(=O)CCNCC(=O)[C@@H](O)[C@H](O)[C@H](O)CO`, in the experiment on sensory panel [1], the “lowering of the taste threshold molar concentration by a factor” value is recorded as “about 4”. Besides, the “sensory difference described by panel” value was “increased the spicy, savory and meaty flavours” in the experiment on sensory panel [2]; “increased the savory, fatty and spicy notes” with sensory panel [3].
